EP2924040A1, “2-Amino-1-(o-tolyl)pyrrolo[3,2-b]quinoxaline-3-carboxamide derivates” (Universität Zürich, priority 2014, dated 2015)

What was measured:
K562 = test: Cell culture and GI50 determination (resazurin); format: cell-based; conditions: Homo sapiens, K562, 48 hour incubation
Procedure: MDA-MB-231 (breast cancer) and KM12 (colon cancer) cells obtained from the UZH Cancer Institute, HOP-92 (lung cancer) cells purchased from the National Cancer Institute (NCl) and A498 (kidney cancer) cells obtained from Prof. Krek (Institute of Cell Biology, ETH Zurich) were cultured in Dulbecco's modified Eagle's medium (DMEM) supplemented with 10% (v/v) fetal bovine serum. K562 leukemia cells obtained from Dr. Silvio Hemmi (Institute of Molecular Life Sciences, UZH) were cultured using RPMI medium supplemented with 5% (v/v) fetal bovine serum. All the media was additionally supplemented with 100 units/mL of penicillin, 100µg/mL of streptomycin, 4.5 g/L glucose, 0.11g/L sodium pyrubate and 2mM glutamine and the cells were grown at 37 °C in 5% CO2 atmosphere with 80% relative humidity.
In the case of K-562 leukemia cells, these were seeded at a density of 20,000 cells per well in 100µL of RMPI media in a 96 well microtiter plates. […] After 48 hour incubation, cell viability was assessed by measuring the ability of the cells to process resazurin. Resazurin was added to every well to obtain a final concentration of 86nmol/L, and after 3 hours, the fluorescence was quantified using a fluorescence microplate reader (Biotek, FLx800™) at the respective excitation and emission wavelength of 560 and 590 nm as described above. […]

HT-29 = test: Cell culture and GI50 determination (resazurin); format: cell-based; conditions: Homo sapiens; HT-29, resazurin
Procedure: MDA-MB-231, HT-29, KM12, HOP-92 and A498 cells were plated at 10,000 cells per well (100 µL per well) in 96-well culture dishes and allowed to incubate for 24 h. The old media was removed, the cells were washed with PBS (phosphate-buffered saline) and fresh media was added. A 5 mmol/L solution of inhibitor (in 100% DMSO) was serially diluted in the culture media (12 different concentrations were used) and allowed to incubate for 72 h (MDA-MB-231) or 48h (A498). Control cells were treated with the same DMSO concentrations. After the incubation period the media was once more removed and the cells were washed with PBS to then be incubated with fresh media containing 86 nmol/L resazurin. After 3 hours, the fluorescence was quantified using a fluorescence microplate reader (Biotek, FLx800™) at the respective excitation and emission wavelength of 560 and 590 nm. Resazurin becomes fluorescent under mitochondrial reduction and its emission directly correlates with the metabolic stability of the cells. The measured fluorescence values were corrected from the control samples containing DMSO and GI50 values were determined by plotting the fraction of metabolically active cells against the log of the drug concentration. All measurements were performed at least in triplicate.

EphA3 = target: T1, EphA3 (Homo sapiens, UniProt P29320); test: Surface Plasmon Resonance (SPR) determination of binding and unbinding kinetics; conditions: immobilized EphA3, 25 °C
T1 sequence (P29320 21-983): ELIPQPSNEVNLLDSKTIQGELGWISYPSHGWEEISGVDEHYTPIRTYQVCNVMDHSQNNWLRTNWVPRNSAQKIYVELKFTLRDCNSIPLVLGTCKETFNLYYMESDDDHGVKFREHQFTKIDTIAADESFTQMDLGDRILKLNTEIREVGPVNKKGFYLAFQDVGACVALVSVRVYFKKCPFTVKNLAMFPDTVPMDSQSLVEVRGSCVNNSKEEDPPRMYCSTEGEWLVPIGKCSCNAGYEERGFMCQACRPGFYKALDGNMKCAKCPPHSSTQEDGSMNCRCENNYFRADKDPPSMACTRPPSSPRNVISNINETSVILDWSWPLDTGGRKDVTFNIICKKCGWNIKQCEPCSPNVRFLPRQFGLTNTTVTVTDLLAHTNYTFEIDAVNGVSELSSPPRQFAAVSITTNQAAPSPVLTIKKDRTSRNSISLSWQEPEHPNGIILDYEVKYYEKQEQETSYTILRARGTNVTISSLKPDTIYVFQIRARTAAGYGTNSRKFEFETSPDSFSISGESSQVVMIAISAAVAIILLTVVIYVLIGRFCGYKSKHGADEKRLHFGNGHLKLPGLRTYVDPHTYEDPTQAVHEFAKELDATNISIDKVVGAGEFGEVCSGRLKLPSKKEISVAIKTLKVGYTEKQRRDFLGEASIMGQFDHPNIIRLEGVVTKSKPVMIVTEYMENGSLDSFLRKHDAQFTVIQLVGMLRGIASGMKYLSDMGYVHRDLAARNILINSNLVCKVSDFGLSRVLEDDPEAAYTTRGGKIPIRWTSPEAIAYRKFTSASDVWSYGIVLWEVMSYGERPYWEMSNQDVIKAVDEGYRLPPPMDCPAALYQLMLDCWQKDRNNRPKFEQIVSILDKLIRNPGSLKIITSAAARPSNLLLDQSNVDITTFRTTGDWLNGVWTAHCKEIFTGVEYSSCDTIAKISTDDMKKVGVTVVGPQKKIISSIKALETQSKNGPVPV
Procedure: The affinity of compound 2 towards EphA3 was determined using Surface Plasmon Resonance measurements on a ProteOn XPR36 (Bio-Rad Laboratories, AG). EphA3 was immobilized on a GLH chip (Bio-Rad Laboratories AG) by standard amine coupling procedures achieving a RU of 4000-6000 and equilibrated with steriled-filtered buffer (10mM HEPES, 150mM NaCl, 3mM EDTA, 0.005% Tween 20 pH 8.0) with a flow rate of 60µL/min. Association of compound 2 was performed at 25 °C using serial dilutions of the inhibitors in duplicates for 400s, whereas dissociation of the inhibitors from the chip was monitored for 36,000 seconds. Data were normalized using interspot referencing and subtraction of a separate analyte channel run with buffer and BSA. All sensograms were fitted using a 1:1 Langmuir model provided by the ProteOn Manager Software (Bio-Rad Laboratories AG), and the association (kon) and dissociation ([…]) rate constants were used to determine the equilibrium dissociation constants (KD).

SMILES: Cc1ccc(O)cc1-n1c(N)c(C(N)=O)c2nc3ccccc3nc21 [Compound 2, 2-Amino-1-(5-hydroxy-2-methylphenyl)-1H-pyrrolo[2,3-b]quinoxaline-3-carboxamide]
- GI50 (K562): 1050 nM
- GI50 (HT-29): 4590 nM
- Kd (EphA3; 1:1 Langmuir model, read-out: dissociation constant (KD)): 6 nM
- residence time (EphA3; reciprocal value of koff, read-out: τoff (residence time) (converted)): 11 min
